Target: integrin αvβ3 (Homo sapiens, UniProt P05106+P06756)
Test: Whole-cell integrin αvβ3 competitive displacement assay against ^125I-c
Type: binding

N=C(N)NCCC[C@@H]1NC(=O)[C@H](CCCCNC(=O)CCOCCOCCOCCOCCNC(=O)CN2CCN(CC(=O)O)CCN(CC(=O)O)CCN(CC(=O)O)CC2)NC(=O)[C@@H](Cc2ccccc2)NC(=O)[C@H](CC(=O)O)NC(=O)CNC1=O [DOTA-P-RGD, DOTA-PEG4-c(RGDfK)]
IC50: 0.0443 ± 0.0035 µM

Reference: paper PMC3157017 (Theranostics, 2011)
